In the NIST ThermoML archive (doi:10.1007/s10765-011-1149-x):
Numbers after ± are expanded uncertainties.

Assay: xn = mol fraction of the nth substance listed
Settings: 101 kPa, Liquid, Vibrating tube method

Cc1cc(C)nc(C)c1 [2,4,6-trimethylpyridine] + CO
Settings | mass density [kg/m3]
276.15 K, x1 = 0.0204 | 816.99 ± 0.14
276.15 K, x1 = 0.0511 | 830.47 ± 0.14
276.15 K, x1 = 0.0997 | 848.99 ± 0.14
276.15 K, x1 = 0.194 | 875.69 ± 0.16
276.15 K, x1 = 0.2957 | 895.63 ± 0.15
276.15 K, x1 = 0.3884 | 907.79 ± 0.14
276.15 K, x1 = 0.489 | 916.36 ± 0.15
276.15 K, x1 = 0.5852 | 921.51 ± 0.15
276.15 K, x1 = 0.6949 | 925.01 ± 0.17
276.15 K, x1 = 0.7971 | 926.99 ± 0.19
276.15 K, x1 = 0.8889 | 928.16 ± 0.21
276.15 K, x1 = 1 | 928.45 ± 0.23
277.15 K, x1 = 0.0204 | 816.06 ± 0.15
277.15 K, x1 = 0.0511 | 829.54 ± 0.15
277.15 K, x1 = 0.0997 | 848.07 ± 0.18
277.15 K, x1 = 0.194 | 874.77 ± 0.21
277.15 K, x1 = 0.2957 | 894.71 ± 0.19
277.15 K, x1 = 0.3884 | 906.88 ± 0.17
277.15 K, x1 = 0.489 | 915.47 ± 0.17
277.15 K, x1 = 0.5852 | 920.64 ± 0.17
277.15 K, x1 = 0.6949 | 924.15 ± 0.18
277.15 K, x1 = 0.7971 | 926.14 ± 0.19
277.15 K, x1 = 0.8889 | 927.31 ± 0.21
277.15 K, x1 = 1 | 927.61 ± 0.23
283.14 K, x1 = 0.2957 | 889.2 ± 0.15
283.14 K, x1 = 0.3884 | 901.42 ± 0.15
283.14 K, x1 = 0.5852 | 915.35 ± 0.16
283.14 K, x1 = 0.7971 | 921.01 ± 0.19
283.15 K, x1 = 0.0204 | 810.47 ± 0.15
283.15 K, x1 = 0.0511 | 823.96 ± 0.14
283.15 K, x1 = 0.0997 | 842.5 ± 0.14
283.15 K, x1 = 0.194 | 869.23 ± 0.14
283.15 K, x1 = 0.489 | 910.1 ± 0.15
283.15 K, x1 = 0.6949 | 918.95 ± 0.17
283.15 K, x1 = 0.8889 | 922.22 ± 0.21
283.15 K, x1 = 1 | 922.54 ± 0.23
288.15 K, x1 = 0.0204 | 805.79 ± 0.15
288.15 K, x1 = 0.0511 | 819.3 ± 0.15
288.15 K, x1 = 0.0997 | 837.86 ± 0.14
288.15 K, x1 = 0.194 | 864.59 ± 0.15
288.15 K, x1 = 0.2957 | 884.59 ± 0.15
288.15 K, x1 = 0.3884 | 896.86 ± 0.15
288.15 K, x1 = 0.489 | 905.6 ± 0.15
288.15 K, x1 = 0.5852 | 910.93 ± 0.16
288.15 K, x1 = 0.6949 | 914.61 ± 0.17
288.15 K, x1 = 0.7971 | 916.72 ± 0.19
288.15 K, x1 = 0.8889 | 917.96 ± 0.21
288.15 K, x1 = 1 | 918.32 ± 0.24
293.14 K, x1 = 0.0997 | 833.2 ± 0.15
293.14 K, x1 = 1 | 914.08 ± 0.24
293.15 K, x1 = 0.0204 | 801.11 ± 0.15
293.15 K, x1 = 0.0511 | 814.63 ± 0.15
293.15 K, x1 = 0.194 | 859.94 ± 0.15
293.15 K, x1 = 0.2957 | 879.97 ± 0.15
293.15 K, x1 = 0.3884 | 892.28 ± 0.15
293.15 K, x1 = 0.489 | 901.1 ± 0.16
293.15 K, x1 = 0.5852 | 906.5 ± 0.16
293.15 K, x1 = 0.6949 | 910.25 ± 0.18
293.15 K, x1 = 0.7971 | 912.41 ± 0.19
293.15 K, x1 = 0.8889 | 913.69 ± 0.21
298.14 K, x1 = 0.0511 | 809.94 ± 0.15
298.14 K, x1 = 0.6949 | 905.88 ± 0.18
298.14 K, x1 = 0.8889 | 909.41 ± 0.21
298.15 K, x1 = 0.0204 | 796.41 ± 0.15
298.15 K, x1 = 0.0997 | 828.52 ± 0.15
298.15 K, x1 = 0.194 | 855.28 ± 0.15
298.15 K, x1 = 0.2957 | 875.33 ± 0.15
298.15 K, x1 = 0.3884 | 887.69 ± 0.15
298.15 K, x1 = 0.489 | 896.57 ± 0.16
298.15 K, x1 = 0.5852 | 902.05 ± 0.16
298.15 K, x1 = 0.7971 | 908.1 ± 0.19
298.15 K, x1 = 1 | 909.84 ± 0.24
303.14 K, x1 = 0.7971 | 903.77 ± 0.19
303.14 K, x1 = 0.8889 | 905.12 ± 0.21
303.15 K, x1 = 0.0204 | 791.7 ± 0.15
303.15 K, x1 = 0.0511 | 805.24 ± 0.15
303.15 K, x1 = 0.0997 | 823.83 ± 0.15
303.15 K, x1 = 0.194 | 850.6 ± 0.15
303.15 K, x1 = 0.2957 | 870.67 ± 0.15
303.15 K, x1 = 0.3884 | 883.08 ± 0.15
303.15 K, x1 = 0.489 | 892.04 ± 0.16
303.15 K, x1 = 0.5852 | 897.58 ± 0.16
303.15 K, x1 = 0.6949 | 901.49 ± 0.18
303.15 K, x1 = 1 | 905.58 ± 0.24
308.14 K, x1 = 0.0997 | 819.11 ± 0.15
308.14 K, x1 = 0.194 | 845.89 ± 0.15
308.14 K, x1 = 0.3884 | 878.45 ± 0.15
308.14 K, x1 = 0.489 | 887.48 ± 0.16
308.14 K, x1 = 0.5852 | 893.1 ± 0.16
308.14 K, x1 = 0.6949 | 897.08 ± 0.18
308.14 K, x1 = 0.7971 | 899.42 ± 0.19
308.15 K, x1 = 0.0204 | 786.96 ± 0.15
308.15 K, x1 = 0.0511 | 800.51 ± 0.15
308.15 K, x1 = 0.2957 | 865.99 ± 0.15
308.15 K, x1 = 0.8889 | 900.82 ± 0.21
308.15 K, x1 = 1 | 901.31 ± 0.24
313.14 K, x1 = 0.0204 | 782.2 ± 0.15
313.14 K, x1 = 0.0511 | 795.75 ± 0.15
313.14 K, x1 = 0.0997 | 814.36 ± 0.16
313.14 K, x1 = 0.489 | 882.9 ± 0.16
313.14 K, x1 = 0.6949 | 892.65 ± 0.18
313.15 K, x1 = 0.194 | 841.15 ± 0.16
313.15 K, x1 = 0.2957 | 861.28 ± 0.16
313.15 K, x1 = 0.3884 | 873.79 ± 0.16
313.15 K, x1 = 0.5852 | 888.59 ± 0.17
313.15 K, x1 = 0.7971 | 895.05 ± 0.2
313.15 K, x1 = 0.8889 | 896.49 ± 0.21
313.15 K, x1 = 1 | 897.03 ± 0.24
